pEC50, pIC50: −log10 of the molar value.
How the values were obtained:
[1] = system: TNFα production in LPS-stimulated human monocytes; assay: Cot Monocyte TNFα Cell Based Assay; settings: Homo sapiens, Monocyte, TNFα in LPS-stimulated human monocytes; read-out: EC50 TNF
Procedure, shortened: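 Cells at 5,000/well were pretreated with compound for 1 h at 37 °C (0.5% DMSO final), then stimulated with 50 pg/ml LPS for 4 h at 37 °C. Supernatant TNFα was measured by two-antibody TR-FRET after overnight room-temperature incubation; values are percent of control between unstimulated and stimulated wells.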

[2] = target: T1, human Cot catalytic domain (30-397 amino acids) (Homo sapiens, UniProt P41279); assay: High Throughput Cot Biochemical Assay (KinEASE TR-FRET); settings: Cot KinEASE TR-FRET (HTRF) biochemical assay, 400 μM ATP; read-out: IC50 HTRF
T1 construct: Purified recombinant human Cot catalytic domain (30-397 amino acids) was purchased from Cama Biosciences; purchased Cama Biosciences (so in the source)
Procedure, shortened: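 Reaction of 5 nM recombinant human Cot catalytic domain (aa 30-397) with 1 μM STK3 peptide (XL665-labeled) and 400 μM ATP in 10 mM MOPS pH 7.0, 10 mM MgOAc, 1 mM DTT, 0.5 mg/mL BSA, 0.1% DMSO. Phosphopeptide detected by TR-FRET with europium anti-phospho antibody.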

T1 sequence (P41279 30-397): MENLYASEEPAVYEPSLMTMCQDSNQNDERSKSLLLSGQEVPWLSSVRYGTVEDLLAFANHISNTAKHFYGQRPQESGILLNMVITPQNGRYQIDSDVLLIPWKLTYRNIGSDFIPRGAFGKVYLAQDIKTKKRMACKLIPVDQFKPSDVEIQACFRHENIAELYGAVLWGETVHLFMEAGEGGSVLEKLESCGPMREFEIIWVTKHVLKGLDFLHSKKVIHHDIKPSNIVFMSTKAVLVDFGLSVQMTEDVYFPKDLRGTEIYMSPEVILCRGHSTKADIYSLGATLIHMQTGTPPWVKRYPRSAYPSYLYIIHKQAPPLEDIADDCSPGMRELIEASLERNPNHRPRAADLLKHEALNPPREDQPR

## [2H][C@@](Nc1cc(Cl)c2ncc(C#N)c(NC3CC4CCC3CC4)c2c1)(c1ccc(F)cc1)c1cn(C2CC2)nn1 (stereo partly drawn) [Example 277, 4-(((1s,4s)-bicyclo[2.2.2]octan-2-yl)amino)-8-chloro-6-(((S)-(1-cyclopropyl-1H-1,2,3-triazol-4-yl)(4-fluorophenyl)methyl-d)amino)quinoline-3-carbonitrile]
[1]
  pEC50: 6.07
[2]
  pIC50: 7.49

## [2H][C@](Nc1cc(Cl)c2ncc(C#N)c(N)c2c1)(c1ccc(F)cc1)c1cn(C2CC2)nn1 [Example 279, 4-amino-8-chloro-6-(((S)-(1-cyclopropyl-1H-1,2,3-triazol-4-yl)(4-fluorophenyl)methyl-d)amino)quinoline-3-carbonitrile]
[1]
  pEC50: 5.09
[2]
  pIC50: 5.52

## [2H][C@](Nc1cc(Cl)c2ncc(C#N)c(NOC(C)(C)C)c2c1)(c1ccc(F)cc1)c1cn(C2CC2)nn1 [Example 280, (S)-4-(tert-butoxyamino)-8-chloro-6-(((1-cyclopropyl-1H-1,2,3-triazol-4-yl)(4-fluorophenyl)methyl-d)amino)quinoline-3-carbonitrile]
[1]
  pEC50: 5.83
[2]
  pIC50: 6.64

## [2H][C@](Nc1cc(Cl)c2ncc(C#N)c(N[C@H](CC)c3cccc(C)c3)c2c1)(c1ccc(F)cc1)c1cn(C2CC2)nn1 [Example 281, 8-chloro-6-(((S)-(1-cyclopropyl-1H-1,2,3-triazol-4-yl)(4-fluorophenyl)methyl-d)amino)-4-(((R)-1-(m-tolyl)propyl)amino)quinoline-3-carbonitrile]
[1]
  pEC50: 5.98
[2]
  pIC50: 7.17

## [2H][C@](Nc1cc(Cl)c2ncc(C#N)c(NC(C)(C)CC)c2c1)(c1ccc(F)cc1)c1cn(C2CC2)nn1 [Example 282, (S)-8-chloro-6-(((1-cyclopropyl-1H-1,2,3-triazol-4-yl)(4-fluorophenyl)methyl-d)amino)-4-(tert-pentylamino) quinoline-3-carbonitrile]
[1]
  pEC50: 6.28
[2]
  pIC50: 7.41

## [2H][C@](Nc1cc(Cl)c2ncc(C#N)c(NC(C)(C)C)c2c1)(c1ccc(F)cc1)c1cn(C2CC2)nn1 [Example 283, (S)-4-(tert-butylamino)-8-chloro-6-(((1-cyclopropyl-1H-1,2,3-triazol-4-yl)(4-fluorophenyl)methyl-d)amino)quinoline-3-carbonitrile]
[1]
  pEC50: 6.12
[2]
  pIC50: 7.05

## [2H][C@](Nc1cc(C#N)c2ncc(C#N)c(NCC(C)(C)C)c2c1)(c1ccc(F)cc1)c1cn(C2CC2)nn1 [Example 284, (S)-6-(((1-cyclopropyl-1H-1,2,3-triazol-4-yl)(4-fluorophenyl)methyl-d)amino)-4-(neopentylamino) quinoline-3,8-dicarbonitrile]
[1]
  pEC50: 7.28
[2]
  pIC50: 8.40

## [2H][C@](Nc1cc(C#N)c2ncc(C#N)c(N[C@H](CC)c3ccccc3)c2c1)(c1ccc(F)cc1)c1cn(C2CC2)nn1 [Example 285, 6-(((S)-(1-cyclopropyl-1H-1,2,3-triazol-4-yl)(4-fluorophenyl)methyl-d)amino)-4-(((R)-1-phenylpropyl)amino) quinoline-3,8-dicarbonitrile]
[1]
  pEC50: 7.35
[2]
  pIC50: 8.52

## [2H][C@](Nc1cc(Br)c2ncc(C#N)c(NCC(C)(C)C)c2c1)(c1ccc(F)cc1)c1cn(C2CC2)nn1 [Example 287, (S)-8-bromo-6-(((1-cyclopropyl-1H-1,2,3-triazol-4-yl)(4-fluorophenyl)methyl-d)amino)-4-(neopentylamino)quinoline-3-carbonitrile]
[1]
  pEC50: 6.85
[2]
  pIC50: 8.00

## [2H][C@](Nc1cc(Br)c2ncc(C#N)c(N[C@H](CC)c3ccccc3)c2c1)(c1ccc(F)cc1)c1cn(C2CC2)nn1 [Example 288, 8-bromo-6-(((S)-(1-cyclopropyl-1H-1,2,3-triazol-4-yl)(4-fluorophenyl)methyl-d)amino)-4-(((R)-1-phenylpropyl)amino)quinoline-3-carbonitrile]
[1]
  pEC50: 6.89
[2]
  pIC50: 8.22

## [2H][C@@](Nc1cc(Cl)c2ncc(C#N)c(NCC(C)(C)C)c2c1)(c1cn(C2CC2)nn1)c1cccc(C#N)c1Cl [Example 289, (S)-8-chloro-6-(((2-chloro-3-cyanophenyl)(1-cyclopropyl-1H-1,2,3-triazol-4-yl)methyl-d)amino)-4-(neopentylamino) quinoline-3-carbonitrile]
[1]
  pEC50: 6.94
[2]
  pIC50: 8.40

## [2H][C@](Nc1cc(F)c2ncc(C#N)c(N[C@H](CC)c3ccccc3)c2c1)(c1ccc(F)cc1)c1cn(C2CC2)nn1 [Example 291, 6-(((S)-(1-cyclopropyl-1H-1,2,3-triazol-4-yl)(4-fluorophenyl)methyl-d)amino)-8-fluoro-4-(((R)-1-phenylpropyl)amino) quinoline-3-carbonitrile]
[1]
  pEC50: 6.76
[2]
  pIC50: 8.10

## [2H][C@@](Nc1cc(Cl)c2ncc(C#N)c(N[C@H](CC)c3ccccc3)c2c1)(c1cn(C2CC2)nn1)c1cccc(C#N)c1Cl [Example 292, 8-chloro-6-(((S)-(2-chloro-3-cyanophenyl)(1-cyclopropyl-1H-1,2,3-triazol-4-yl)methyl-d)amino)-4-(((R)-1-phenylpropyl)amino)quinoline-3-carbonitrile]
[1]
  pEC50: 6.63
[2]
  pIC50: 7.89

## N#Cc1cnc2c(Cl)cc(N[C@H](c3cn(C4CC4)nn3)c3cccc(Cl)c3Cl)cc2c1Nc1cnc(F)c(F)c1 [Example 293, (S)-8-chloro-6-(((1-cyclopropyl-1H-1,2,3-triazol-4-yl)(2,3-dichlorophenyl)methyl)amino)-4-((5,6-difluoropyridin-3-yl)amino)quinoline-3-carbonitrile]
[1]
  pEC50: 6.33
[2]
  pIC50: 7.62

## CC[C@@H](Nc1c(C#N)cnc2c(Cl)cc(N[C@H](c3cn(C4CC4)nn3)c3cccc(Cl)c3Cl)cc12)c1ccccc1 [Example 294, 8-chloro-6-(((S)-(1-cyclopropyl-1H-1,2,3-triazol-4-yl)(2,3-dichlorophenyl)methyl)amino)-4-(((R)-1-phenylpropyl)amino)quinoline-3-carbonitrile]
[1]
  pEC50: 5.73
[2]
  pIC50: 7.04

## [2H][C@](Nc1cc(Cl)c2ncc(C#N)c(N[C@@H](CC#N)c3ccccc3)c2c1)(c1cccc(C#N)c1)c1cn(C2CC2)nn1 [Example 295, 8-chloro-4-(((S)-2-cyano-1-phenylethyl)amino)-6-(((S)-(3-cyanophenyl)(1-cyclopropyl-1H-1,2,3-triazol-4-yl)methyl-d)amino)quinoline-3-carbonitrile]
[1]
  pEC50: < 5.00
[2]
  pIC50: 6.41

## [2H][C@](Nc1cc(Cl)c2ncc(C#N)c(N[C@H](CC#N)c3ccccc3)c2c1)(c1cccc(C#N)c1)c1cn(C2CC2)nn1 [Example 296, 8-chloro-4-(((R)-2-cyano-1-phenylethyl)amino)-6-(((S)-(3-cyanophenyl)(1-cyclopropyl-1H-1,2,3-triazol-4-yl)methyl-d)amino)quinoline-3-carbonitrile]
[1]
  pEC50: 7.36
[2]
  pIC50: 8.70

## CC[C@@H](Nc1c(C#N)cnc2c(Cl)cc(N[C@@H](c3ccc(F)cc3)c3c[nH]nn3)c(F)c12)c1ccccc1 [Example 297]
[1]
  pEC50: 5.37
[2]
  pIC50: < 5.00

## [2H][C@](Nc1cc(Cl)c2ncc(C#N)c(N[C@H](CC)c3ccccc3)c2c1)(c1ccccc1Cl)c1nn[nH]c1C [Example 298, 8-chloro-6-(((S)-(2-chlorophenyl)(5-methyl-1H-1,2,3-triazol-4-yl)methyl-d)amino)-4-(((R)-1-phenylpropyl)amino)quinoline-3-carbonitrile]
[1]
  pEC50: 5.83
[2]
  pIC50: 6.92

## [2H][C@](Nc1cc(Cl)c2ncc(C#N)c(NCC(C)(C)C#N)c2c1)(c1ccc(F)cc1)c1cn(C2CC2)nn1 [Example 299, (S)-8-chloro-4-((2-cyano-2-methylpropyl)amino)-6-(((1-cyclopropyl-1H-1,2,3-triazol-4-yl)(4-fluorophenyl)methyl-d)amino)quinoline-3-carbonitrile]
[1]
  pEC50: 6.51
[2]
  pIC50: 7.92

## [2H][C@](Nc1cc(Cl)c2ncc(C#N)c(N[C@H](CC)c3cccc(F)c3)c2c1)(c1ccc(F)cc1)c1cn(C2CC2)nn1 [Example 300, 8-chloro-6-(((S)-(1-cyclopropyl-1H-1,2,3-triazol-4-yl)(4-fluorophenyl)methyl-d)amino)-4-(((R)-1-(3-fluorophenyl)propyl)amino) quinoline-3-carbonitrile]
[1]
  pEC50: 6.90
[2]
  pIC50: 8.40

## [2H][C@](Nc1cc(Cl)c2ncc(C#N)c(NNC3CCCCC3)c2c1)(c1ccc(F)cc1)c1cn(C2CC2)nn1 [Example 301, (S)-8-chloro-4-(2-cyclohexylhydrazinyl)-6-(((1-cyclopropyl-1H-1,2,3-triazol-4-yl)(4-fluorophenyl)methyl-d)amino)quinoline-3-carbonitrile]
[1]
  pEC50: 5.91
[2]
  pIC50: < 5.00

## [2H][C@](Nc1cc(Cl)c2ncc(C#N)c(NC(CCC#N)c3ccccc3)c2c1)(c1ccc(F)cc1)c1cn(C2CC2)nn1 (stereo partly drawn) [Example 302, 8-chloro-4-((3-cyano-1-phenylpropyl)amino)-6-(((S)-(1-cyclopropyl-1H-1,2,3-triazol-4-yl)(4-fluorophenyl)methyl-d)amino)quinoline-3-carbonitrile]
[1]
  pEC50: 7.13
[2]
  pIC50: 8.52

## [2H][C@](Nc1cc(Cl)c2ncc(C#N)c(Nc3cnc(F)c(Cl)c3)c2c1)(c1cccc(C#N)c1)c1cn(C2CC2)nn1 [Example 303, (S)-8-chloro-4-((5-chloro-6-fluoropyridin-3-yl)amino)-6-(((3-cyanophenyl)(1-cyclopropyl-1H-1,2,3-triazol-4-yl)methyl-d)amino)quinoline-3-carbonitrile]
[1]
  pEC50: 6.76
[2]
  pIC50: 8.40

— patent publication US10316017B2, “COT modulators and methods of use thereof” (Gilead Sciences, Inc., priority 2015, dated 2019)
